Laboratory results from patent US20230226043A1 (priority 2020, published 2023).

How the values were obtained:
SARS-CoV-2 [1] = details: 10 μM; cited from earlier work
non-senescent BV2 cells = test: Viability of non-senescent BV2 cells, sulforhodamine B (SRB) assay; assay type: cell-based; details: 48 h exposure, masitinib 0.1-2 μM and/or isoquercetin 1-20 μM
Method: (§1) BV2 cells are retroviral-immortalized microglia-like cells, which are used as a model for cellular senescence. BV2 cells were cultured in Dulbecco's modified Eagle's medium supplemented with 10% heat-inactivated fetal bovine serum (hiFBS) and plated in 6-well multiwell plates for treatment and flow cytometry analysis.
(§2) For cellular viability analysis of non-senescent cells (BV2 cells) and senescent cells (BV2 cells pretreated with TMZ), cells were plated in 96-well multiwell plates during 72 hours. […] After 48 hours of treatment, cell viability was analyzed by sulforhodamine B (SRB) assay. The optical density (OD) of each well was read in a 96-well plate reader at 540 nm. The OD of the SRB solution is directly proportional to the cell number.

senescent BV2 cells = test: Viability of senescent BV2 cells (pretreated with TMZ), SRB assay; assay type: cell-based; details: for cell viability of senescent BV2 cells, single agent: single agent below the high concentrations (2 μM masitinib, 20 μM isoquercetin)
Method: as §1
BV2 cells were treated with temozolomide (TMZ), an alkylating agent inducing DNA damage, in order to induce senescence of the cells. For senescence induction studies, cells were plated and treated twice with increasing doses (10-150 μM) of TMZ during 5 hours every 24 hours. After exposure of BV2 cells to two successive treatments with TMZ, their proliferation was reduced and the cells developed a characteristic senescent phenotype with enlarged size and flat-granulated shape. The senescent phenotype of BV2 cells after TMZ-induced genotoxicity was further confirmed by measuring the number of cells displaying β-gal activity, a well-recognized marker of cellular senescence. After the second TMZ-treatment, flow cytometry analysis was thus carried out using a 5-Dodecanoylaminofluorescein Di-β-D-Galactopyranoside (C12FDG) kit to measure β-galactosidase activity by the alkalinization of lysosomes as described by the manufacturer's instructions (Thermo Fisher Scientific, #D2893). TMZ induced a dose-dependent increase in the number β-gal+ cells. Up to 60% of β-gal+BV2 cells, i.e., senescent cells, were obtained at a TMZ concentration of 100 μM (data not shown).
as §2

A549-mRuby cells = test: Cell growth in the drug screen (cell numbers day 4 / day 0); assay type: cell-based, human
Method: (§3) Cells were seeded in a final volume of […] with DMEM+10% BCS. […] All the following steps were performed at room temperature. […] The screen was performed twice.

[2] = test system: lymphocytic choriomeningitis virus (LCMV); assay type: cell-based; details: 10 μM, n=2, p>0.07
measles virus (MeV) = test: Measles virus inhibition assay in Vero cells, luciferase; assay type: cell-based; details: 10 μM, n=3, p>0.07
Method: Vero cells were infected with a luciferase-expressing measles virus at an MOI of 0.01 for 90 minutes. The inoculum was removed and added fresh medium containing masitinib or DMSO to the cells for further culture. Three days later, firefly luciferase activity was measured by adding 0.5 mM of D-Luciferin to each well and was quantified with an Infinite M200 Pro multimode microplate reader.

[3] = biological target: picornaviruses 3C protease (Coxsackievirus B3, UniProt P03313); test: 3C protease activity assay, luciferase reporter in Huh7 cells; details: n=6, p-value=7×10-6
SARS-CoV-2 [4] = test: SARS-CoV-2 progeny production, plaque titers on Vero E6 cells; assay type: cell-based; details: 10 μM; for decrease of SARS-CoV-2 progeny production: 2 h pre-treatment, MOI 0.5, supernatant 2 days
Method: For SARS-CoV-2 plaque titers, cell supernatants from the infection described above were serially diluted (10-fold steps were used) and used to infect Vero E6 cells for 1 hour. Inoculum was removed and 1.25% methylcellulose DMEM solution was added to the cells and incubated for 3 days. Plates were fixed in 1:10 formalin for 1 hour, stained with crystal violet for 1 hour and were counted to determine plaque forming units (PFU)/ml.

influenza A virus (IAV) = test: Influenza A infection of MDCK-SIAT1-TMPRSS2 cells; assay type: cell-based, Influenza A/Puerto Rico/8/1934 (PR8); details: 10 μM, n=3, p>0.07
Method: MDCK-SIAT1-TMPRSS2 cells were infected with Influenza A/Puerto Rico/8/1934 (PR8) at an MOI of 0.01 TCID50/cell. Following a 1 hour adsorption, virus was removed and the cells were washed. […] Supernatants were harvested and clarified at 20 hours post infection. The supernatants were titrated using TCID on MDCK-SIAT1-TMPRSS2 cells.

[5] = test system: Chikungunya virus (CHIKV); test: Chikungunya virus infection; assay type: cell-based; details: 10 μM, n=3, p>0.07
OC43 [6] = test: Drug repurposing screen, OC43 nucleoprotein staining in A549-mRuby cells; assay type: cell-based, human beta coronavirus OC43 (HCoV-OC43); details: for % staining of OC43: normalized to no-drug controls in the same plate
Method: as §3

SARS-CoV-2 [7] = test: SARS-CoV-2 intranasal challenge of K18-hACE2 mice; details: bid, ip, vs PBS; for clinical score: 1-6 days post infection
OC43 [8] = test: OC43 replication in primary human airway epithelial cells; assay type: cell-based, human beta coronavirus OC43 (HCoV-OC43); details: Betacoronavirus 1, OC43, Epithelial cell, read-out: EC50, inhibition of OC43 replication
OC43 [9] = test: Dose-response analysis of OC43 infection in A549-mRuby cells; assay type: cell-based, human beta coronavirus OC43 (HCoV-OC43); details: Betacoronavirus 1, OC43, A549, 48 h, read-out: EC50 against OC43 infection
Method: Dose-response analysis of OC43 infection was done similarly to the drug screening, except cells were seeded at a concentration of 5,000 cells per well and the media contained 2% BCS instead of 10% BCS. OC43 staining was performed 2 days after infection and analyzed similarly to what was described for the drug screening. A sigmoid fit was used to extract EC50 values using Matlab.

[10] = test system: human rhinovirus 16 (HRV16); test: Picornavirus infection of Huh7 cells, plaque titration; assay type: cell-based; details: 10 M [sic] masitinib, MOI 0.01, 24 h
Method: (§4) Prior to infection, Huh7 cells were pretreated for two hours. Virus was diluted using serum-free DMEM (SFM) to achieve an MOI of 0.01. Cell supernatants (collected at 24 hours post infection) were dilutions in SFM and used to inoculate Vero cells for 10-15 min at 37 C. Cells were incubated for 2 days at 37 C after overlaying them DMEM containing 2% NBCS and 0.8% agarose. […] The number of plaque forming units (PFU/per milliliter) were then calculated.

[11] = test system: human rhinovirus 14 (HRV14); test: as above; assay type: cell-based; details: 10 M [sic] masitinib, MOI 0.01, 24 h
Method: as §4

coxsackievirus B3 (CVB3) = test: as above; assay type: cell-based; details: 10 M [sic] masitinib, MOI 0.01, 24 h
Method: as §4

[12] = test system: human rhinovirus 2 (HRV2); test: as above; assay type: cell-based; details: 10 M [sic] masitinib, MOI 0.01, 24 h
Method: as §4

[13] = 25 or 50 mg/kg, 4 and 6 days post infection

Sequence of picornaviruses 3C protease (P03313 1541-1723 limits assumed): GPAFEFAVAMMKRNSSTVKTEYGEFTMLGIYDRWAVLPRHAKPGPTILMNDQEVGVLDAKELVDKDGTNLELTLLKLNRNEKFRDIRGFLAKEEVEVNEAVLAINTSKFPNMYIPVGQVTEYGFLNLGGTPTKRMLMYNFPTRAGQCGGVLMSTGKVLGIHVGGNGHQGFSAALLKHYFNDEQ

O=CC(CC1CCNC1=O)NC(=O)C(CC1CCCCC1)NC(=O)c1cc2ccccc2[nH]1 (stereo not shown) [11a]
inhibition of SARS-CoV-2 progeny production (SARS-CoV-2 [1]): 2 logs

O=CC(CC1CCNC1=O)NC(=O)C(Cc1cccc(F)c1)NC(=O)c1cc2ccccc2[nH]1 (stereo not shown) [11b]
inhibition of SARS-CoV-2 progeny production (SARS-CoV-2 [1]): 2 logs

O=c1c(O[C@@H]2O[C@H](CO)[C@@H](O)[C@H](O)[C@H]2O)c(-c2ccc(O)c(O)c2)oc2cc(O)cc(O)c12 [isoquercetin, 2-(3,4-dihydroxyphenyl)-5,7-dihydroxy-3-[(2S,3R,4S,5S,6R)-3,4,5-trihydroxy-6-(hydroxymethyl)oxan-2-yl]oxychromen-4-one]
cell viability of non-senescent proliferating BV2 cells (non-senescent BV2 cells): no significant change in cell viability | cytotoxicity at 20 µM (senescent BV2 cells; Mus musculus, BV-2, 20 μM isoquercetin alone, 48 h, TMZ-induced senescent BV2 cells, read-out: reduction in senescent cell viability): ~25% | cell viability of senescent BV2 cells, single agent (senescent BV2 cells): modest reduction in cell viability

Cc1ccc(NC(=O)c2ccc(CN3CCN(C)CC3)cc2)cc1Nc1nc(-c2cccnc2)cs1 [masitinib, 4-(4-methylpiperazin-1-ylmethyl)-N-[4-methyl-3-(4-pyridin-3ylthiazol-2-ylamino)phenyl]benzamide]
number of cells at day 4 divided by number of cells at day 0 (A549-mRuby cells; screen repeat #1): 4.3 | number of cells at day 4 divided by number of cells at day 0 (A549-mRuby cells; screen repeat #2): 4.7 | effect on cells infected by lymphocytic choriomeningitis virus (LCMV) [2]: did not show a significant effect | effect on cells infected by measles virus (MeV) (measles virus (MeV)): did not show a significant effect | activity of the 3C protease in cells [3]: significantly inhibited | cell viability of non-senescent proliferating BV2 cells (non-senescent BV2 cells): no significant change in cell viability | decrease of SARS-CoV-2 progeny production (SARS-CoV-2 [4]): over 5 logs | decrease of SARS-CoV-2 progeny production (SARS-CoV-2 [4]; listed as Masitinib): > 5 logs | reduction in viral titers (SARS-CoV-2 progeny) (SARS-CoV-2 [4]; n=3, p<0.001): statistically significant | effect on cells infected by influenza A virus (IAV) (influenza A virus (IAV)): did not show a significant effect | cytotoxicity at 2 µM (senescent BV2 cells; Mus musculus, BV-2, 48 h, read-out: reduction in senescent cell viability): ~25% | cell viability of senescent BV2 cells, single agent (senescent BV2 cells): modest reduction in cell viability | effect on cells infected by Chikungunya virus (CHIKV) [5]: did not show a significant effect | mean % staining of OC43 (OC43 [6]; mean of two screen repeats, normalized to no-drug controls (=100), drug at 10 PM as printed, day 4): 12.2% | % staining of OC43 (OC43 [6]; screen repeat #1): 14.4% | % staining of OC43 (OC43 [6]; screen repeat #2): 10.1% | clinical score (SARS-CoV-2 [7]; 25 mg/kg): significant decrease | clinical score (SARS-CoV-2 [7]; 50 mg/kg): significant decrease | SARS-CoV-2 viral load in the lung (SARS-CoV-2 [7]; [13]): significant decrease | SARS-CoV-2 viral load in the nasal turbinates (SARS-CoV-2 [7]; [13]): significant decrease | EC50 (OC43 [8]): 580 nM | EC50 (OC43 [9]): 2100 nM | replication of human rhinovirus 16 (HRV16) [10]: effective in blocking the replication | replication of human rhinovirus 14 (HRV14) [11]: effective in blocking the replication | replication of coxsackievirus B3 (CVB3) (coxsackievirus B3 (CVB3)): effective in blocking the replication | replication of human rhinovirus 2 (HRV2) [12]: effective in blocking the replication
